The text below walks through data of ChEMBL document CHEMBL4837252, “Zinc ionophores isolated from Terminalia bellirica fruit rind extract protect against cardiomyocyte hypoxia/reoxygenation injury” (2021).

The source made the active and inactive calls. No cut-off for these calls is given here.

Assay [1] in a line: Zinc ionophore activity assessed as uptake of zinc ions into liposomes by measuring increase in liposome-encapsulated FluoZin3-fluorescence at 10 uM measured after 1 hr in presence of ZnCl2 by fluorescence analysis relative to control.
The nature of assay [2]: Zinc ionophore activity assessed as uptake of zinc ions into liposomes by measuring increase in liposome-encapsulated FluoZin3-fluorescence at 10 uM measured after 1 hr in presence of ZnCl2 and TPEN by fluorescence analysis.
For assay [3], the system named is H9c2. The assay is described as follows: Inhibition of apoptosis in hypoxia/reoxygenation induced injury in rat H9c2 cells assessed as early apoptotic cells at 10 uM treated after 8 hrs of hypoxia and before 2 hrs of reoxygenation period by AnnexinV-FITC/propidium iodide staining based flow cytometry analysis (reference value: 36.45%). The assay is classed as functional. Also on record: scale not given: the % may be the effect or the level left.

In assay [4] the test system is H9c2. Briefly: Inhibition of apoptosis in hypoxia/reoxygenation induced injury in rat H9c2 cells assessed as late apoptotic cells at 10 uM treated after 8 hrs of hypoxia and before 2 hrs of reoxygenation period by AnnexinV-FITC/propidium iodide staining based flow cytometry analysis (reference value: 7%). Format: functional. Also noted: scale not given: the % may be the effect or the level left.

For assay [5], the system named is H9c2. Briefly: Inhibition of apoptosis in hypoxia/reoxygenation induced injury in rat H9c2 cells assessed as viable cells at 10 uM treated after 8 hrs of hypoxia and before 2 hrs of reoxygenation period by AnnexinV-FITC/propidium iodide staining based flow cytometry analysis (reference value: 55.35%). The following applies: read-out: Activity. Format: functional.

Assay [6] concerns H9c2. Briefly: Inhibition of apoptosis in hypoxia/reoxygenation induced injury in rat H9c2 cells assessed as late apoptotic cells at 10 uM treated after 8 hrs of hypoxia and before 2 hrs of reoxygenation period in presence of ZnCl2 by AnnexinV-FITC/propidium iodide staining based flow cytometry analysis (reference value: 7%). Also on record: scale not given: the % may be the effect or the level left. Format: functional.

The test system of assay [7] is H9c2. The assay is described as follows: Inhibition of apoptosis in hypoxia/reoxygenation induced injury in rat H9c2 cells assessed as viable cells at 10 uM treated after 8 hrs of hypoxia and before 2 hrs of reoxygenation period in presence of ZnCl2 by AnnexinV-FITC/propidium iodide staining based flow cytometry analysis (reference value: 55.35%). Format: functional. To be noted: read-out: Activity.

Assay [8] has as its system H9c2. The assay is described as follows: Inhibition of apoptosis in hypoxia/reoxygenation induced injury in rat H9c2 cells assessed as necrotic cells at 10 uM treated after 8 hrs of hypoxia and before 2 hrs of reoxygenation period in presence of ZnCl2 by AnnexinV-FITC/propidium iodide staining based flow cytometry analysis (reference value: 1.25%). Format: functional. Also noted: scale not given: the % may be the effect or the level left.

The test system of assay [9] is H9c2. Briefly: Cardioprotective activity in rat H9c2 cells assessed as reduction in hypoxia/reoxygenation-induced intracellular Zn2+ level depletion by measuring improvement in intracellular TSQ fluorescence intensity at 10 uM treated at the onset of 1 hr reoxygenation period in the presence of ZnCl2 by TSQ staining based fluorescence analysis relative to control. The assay is classed as functional.

The subject of assay [10] is H9c2. The assay is described as follows: Cardioprotective activity against hypoxia/reoxygenation-induced injury in rat H9c2 cells assessed as cell viability at 10 uM treated after 8 hrs of hypoxia and before 16 hrs of reoxygenation period by MTT assay. The assay is classed as functional, cell-based.
Assay [11] concerns H9c2. Briefly: Inhibition of apoptosis in hypoxia/reoxygenation induced injury in rat H9c2 cells assessed as caspase-3 activity at 10 uM treated after 8 hrs of hypoxia and before 16 hrs of reoxygenation period in presence of ZnCl2 (reference value: 187%). Format: functional. Also noted: scale not given: the % may be the effect or the level left.
Assay [12] concerns H9c2. The assay is described as follows: Inhibition of apoptosis in hypoxia/reoxygenation induced injury in rat H9c2 cells assessed as late necrotic cells at 10 uM treated after 8 hrs of hypoxia and before 2 hrs of reoxygenation period by AnnexinV-FITC/propidium iodide staining based flow cytometry analysis (reference value: 1.25%). Also noted: scale not given: the % may be the effect or the level left. The assay is classed as functional.

Assay [13] relates to H9c2. The assay is described as follows: Inhibition of apoptosis in hypoxia/reoxygenation induced injury in rat H9c2 cells assessed as early apoptotic cells at 10 uM treated after 8 hrs of hypoxia and before 2 hrs of reoxygenation period in presence of ZnCl2 by AnnexinV-FITC/propidium iodide staining based flow cytometry analysis (reference value: 36.45%). Format: functional. Also noted: scale not given: the % may be the effect or the level left.

Assay [14] deals with H9c2. The assay is described as follows: Cardioprotective activity against hypoxia/reoxygenation-induced injury in rat H9c2 cells assessed as cell viability at 10 uM treated after 8 hrs of hypoxia and before 16 hrs of reoxygenation period in presence of ZnCl2 by MTT assay. Format: functional. To be noted: read-out: Activity.

In the case of `Oc1c(I)cc(Cl)c2cccnc12`, the fold change (FC) in assay [1] was found to be 40. Moreover, the outcome in assay [2] was inactive.
On to `O=C(O[C@@H]1Cc2c(O)cc(O)cc2O[C@@H]1c1ccc(O)c(O)c1)c1cc(O)c(O)c(O)c1` [EPICATECHIN GALLATE], for which the fold change (FC) in assay [1] amounted to 16; in the assay with H9c2 [9], 2.1. Further, the outcome (in assay [2]; in the assay on H9c2 [10]) was inactive. In addition, the Activity with H9c2 [3] came out at 37.4%; with H9c2 [4], 7.32%; in the assay with H9c2 [6] it was 2.32%; with H9c2 [8], 1.42%; in the assay with H9c2 [11] it was 139%; with H9c2 [12] it was 1.05%. The Activity in the assay on H9c2 [13] was 22.8%. Besides, the results for the viability at 10 µM with H9c2 [5], in the assay on H9c2 [7] and in the assay on H9c2 [14] were 54.2%, 73.5% and 60%, respectively.
Take `Oc1cc(O)c2c(c1)O[C@H](c1cc(O)c(O)c(O)c1)[C@H](O)C2` [EPIGALLOCATECHIN]: the fold change (FC) in [1] turned out to be 8; with H9c2 [9], 1. The result (in assay [2]; in the assay on H9c2 [10]) was inactive. The Activity is listed as 44.27% in the assay with H9c2 [3]; 4.77% in the assay with H9c2 [4]; 6.72% in the assay with H9c2 [6]; 5.05% in the assay with H9c2 [8]; 158% in the assay on H9c2 [11]; 3.92% with H9c2 [12]. In the assay with H9c2 [13], the Activity is listed as 26.47%. For the same molecule, the values for the viability at 10 µM in the assay on H9c2 [5], in the assay on H9c2 [7] and with H9c2 [14] were 47%, 61.8% and 52%, respectively.
As to `O=C(O[C@@H]1Cc2c(O)cc(O)cc2O[C@@H]1c1cc(O)c(O)c(O)c1)c1cc(O)c(O)c(O)c1` [EPIGALOCATECHIN GALLATE], the fold change (FC) in [1] is 28; with H9c2 [9], 4. For the same molecule, the result (in [2]; with H9c2 [10]) was inactive. Also, the Activity with H9c2 [3] came to 37.4%; in the assay on H9c2 [4] it was 8.12%; in the assay on H9c2 [6], 2.72%; in the assay with H9c2 [8], 0.97%; in the assay on H9c2 [11], 112%; in the assay with H9c2 [12] it was 2.02%. The Activity with H9c2 [13] stood at 16.12%. For the same molecule, the viability at 10 µM is 52.5% in the assay on H9c2 [5], 80.1% in the assay on H9c2 [7] and 78% in the assay with H9c2 [14].
